The test has as its target tau (Homo sapiens, UniProt P10636). The test can be described thus: MCE Phenols Library screening, tau biosensor cell seeding assay (AvZ). It is filed as cell-based. The note with it: for Z repl 1 / Z Repl 2: Z score; for Z repl 1 / raw data 1: replicate 1; for Z Repl 2 / raw data 2: replicate 2; for AvZ (average z score of seeding, SDs from the mean level of seeding): 10 μM phenol in cell cultures, AD brain homogenate preincubated 16 hours, two biological replicates, positive = catalyzes seeding, negative = inhibits.

Where [1] appears, read: average Z score of the two replicates, MCE Phenols Library screen.
The mark [2] stands for this setting: average puncta of the two replicates.
[3] abbreviates: average Z score of two replicates, Phenols Library screen.
Where [4] appears, read: average Z score of the two replicates, tau seeding.

Chain of tau (P10636 623-695 limits assumed): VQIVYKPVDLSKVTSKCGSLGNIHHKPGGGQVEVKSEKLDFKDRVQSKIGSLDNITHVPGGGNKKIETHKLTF

Turning to `CC(C)=CC[C@@H](OC(=O)CC(C)(C)O)C1=CC(=O)c2c(O)ccc(O)c2C1=O` [?-Hydroxyisovalerylshikonin], the “Z repl 1” value is recorded as -0.737 and the “Z Repl 2” value is -0.673. The “av Z” value under setting [1] is reported as -0.705. The same molecule gave an av puncta under setting [2] of 11543.5. For the same molecule, where the note is “puncta”, the “raw data 1” value is given as 17504.1 and the “raw data 2” value is reported as 5582.9.
Turning to `Cc1cc(O)c(C)c2c1O[C@](C)(CCC[C@H](C)CCC[C@H](C)CCCC(C)C)CC2` [?-Tocopherol], the “Z repl 1” value is given as 0.056 and the “Z Repl 2” value is reported as -0.786. In addition, under setting [1], the “av Z” value is given as -0.365. The molecule also registered an av puncta under setting [2] of 15701. Where the note is “raw puncta”, the “raw data 1” value stood at 27026 and the “raw data 2” value was 4376.13.
Turning to `Cc1c(C)c2c(c(C)c1O)CC[C@@](C)(CCC[C@H](C)CCC[C@H](C)CCCC(C)C)O2` [?-Vitamin E], the “Z repl 1” value is given as -0.172 and the “Z Repl 2” value was -0.481. Further, the “av Z” value under setting [1] is reported as -0.326. Besides, the av puncta under setting [2] is 15958. For the setting “raw puncta”, the “raw data 1” value is listed as 24288.2 and the “raw data 2” value was determined as 7627.82.
Turning to `COc1ccc(-c2cc(=O)c3c(O)cc(O)cc3o2)cc1` [Acacetin], the “Z repl 1” value was -0.027 and the “Z Repl 2” value is on record as -0.222. Besides, the “av Z” value under setting [3] was -0.124. Also, where the note is “average of raw data 1 and 2”, the av puncta stood at 18211.5. For the same molecule, where the note is “puncta”, the “raw data 1” value was 26028.3 and the “raw data 2” value is 10394.7.
Take `CC(=O)O[C@@H](CC=C(C)C)C1=CC(=O)c2c(O)ccc(O)c2C1=O` [Acetylalkannin]: the “Z repl 1” value was -0.759 and the “Z Repl 2” value is -0.292. Under setting [1], the “av Z” value is recorded as -0.525. Moreover, the av puncta under setting [2] was 13443.1. Where the note is “puncta”, the “raw data 1” value turned out to be 17242.7 and the “raw data 2” value worked out at 9643.51.
As for `CC(=O)O[C@H](CC=C(C)C)C1=CC(=O)c2c(O)ccc(O)c2C1=O` [Acetylshikonin], the “Z repl 1” value was determined as 0.563 and the “Z Repl 2” value is 1.037. Moreover, the “av Z” value (average Z score of the two replicates, tau biosensor seeding, MCE Phenols Library screen) came out at 0.8. Besides, the av puncta (average of raw data 1 and 2) is listed as 28473.3. Also, under “puncta”, the “raw data 1” value turned out to be 33102.4 and the “raw data 2” value came to 23844.2.
In the case of `O=C(OCC1=C[C@@H](O)[C@@H]2C=CO[C@@H](O[C@@H]3O[C@H](CO)[C@@H](O)[C@H](O)[C@H]3O)[C@H]12)c1ccc(O)cc1` [Agnuside], the “Z repl 1” value is -0.301 and the “Z Repl 2” value came to 0.292. Also, under setting [3], the “av Z” value is -0.004. The av puncta (average of raw data 1 and 2) amounted to 19312.6. Where the note is “puncta”, the “raw data 1” value is listed as 22737.6 and the “raw data 2” value is recorded as 15887.6.
`CCCC(=O)c1c(O)c(Cc2c(O)c(Cc3c(O)c(C)c(OC)c(C(=O)CCC)c3O)c(O)c(C(=O)[C@@H](C)CC)c2O)c(O)c(C)c1OC` [Agrimol B]: the “Z repl 1” value is reported as -1.539 and the “Z Repl 2” value is listed as -0.722. Also, the “av Z” value under setting [1] is reported as -1.13. Also, for the setting “average of raw data 1 and 2”, the av puncta is on record as 6464.64. Further, where the note is “puncta”, the “raw data 1” value amounted to 7875.9 and the “raw data 2” value stood at 5053.37.
Take `O=C1c2ccccc2C(=O)c2c1ccc(O)c2O` [Alizarin]: the “Z repl 1” value is -0.67 and the “Z Repl 2” value is -0.047. Also, the “av Z” value under setting [1] is reported as -0.359. In addition, the av puncta under setting [2] is listed as 15284.3. Under “raw puncta”, the “raw data 1” value worked out at 18305.8 and the “raw data 2” value came out at 12262.8.
Regarding `CC(C)=CCc1c2ccoc2c(O)c2oc(=O)ccc12` [Alloimperatorin], the “Z repl 1” value turned out to be 0.545 and the “Z Repl 2” value is listed as -0.475. Further, under setting [3], the “av Z” value came to 0.035. In addition, the av puncta (average of raw data 1 and 2) is given as 20292.7. Also, where the note is “puncta”, the “raw data 1” value was 32890.3 and the “raw data 2” value amounted to 7695.05.
Turning to `O=C1c2cc(CO)cc(O)c2C(=O)c2c(O[C@@H]3O[C@H](CO)[C@@H](O)[C@H](O)[C@H]3O)cccc21` [Aloe-emodin-8-O-?-D-glucopyranoside], the “Z repl 1” value was -0.712 and the “Z Repl 2” value is on record as -0.064. Besides, the “av Z” value under setting [1] is reported as -0.388. Further, under setting [2], the av puncta was determined as 14937.3. For the setting “raw puncta”, the “raw data 1” value is listed as 17796.3 and the “raw data 2” value is recorded as 12078.3.
Regarding `COc1cc(C)c2c(=O)cc(C[C@@H](C)O)oc2c1[C@@H]1O[C@H](CO)[C@@H](O)[C@H](O)[C@H]1OC(=O)/C=C/c1ccc(O)cc1` [Aloeresin D], the “Z repl 1” value is on record as -0.796 and the “Z Repl 2” value is listed as -0.937. The “av Z” value under setting [1] is on record as -0.867. The molecule also returned an av puncta (average of raw data 1 and 2) of 9774.18. Under “puncta”, the “raw data 1” value came to 16789.2 and the “raw data 2” value is listed as 2759.19.
As for `CC(=O)Cc1cc(=O)c2c(C)cc(O)c([C@@H]3O[C@H](CO)[C@@H](O)[C@H](O)[C@H]3O)c2o1` [Aloesin], the “Z repl 1” value worked out at 0.457 and the “Z Repl 2” value was -0.177. The “av Z” value under setting [4] worked out at 0.14. Under “average of raw data 1 and 2”, this molecule came in with an av puncta of 21354.9. Besides, where the note is “puncta”, the “raw data 1” value worked out at 31839.2 and the “raw data 2” value is reported as 10870.5.
With `O=C1c2c(O)cccc2[C@@H]([C@@H]2O[C@H](CO)[C@@H](O)[C@H](O)[C@H]2O)c2cc(CO)cc(O)c21` [Aloin B], the “Z repl 1” value stood at 0.434 and the “Z Repl 2” value is on record as -0.315. In addition, the “av Z” value under setting [3] is given as 0.059. The same molecule showed an av puncta (average of raw data 1 and 2) of 20479. For the same molecule, where the note is “puncta”, the “raw data 1” value turned out to be 31560.5 and the “raw data 2” value is reported as 9397.5.
`O=C1c2c(O)cccc2C([C@@H]2O[C@H](CO)[C@@H](O)[C@H](O)[C@H]2O)c2cc(CO)cc(O)c21` (stereo partly drawn) [Aloin(mixture of A&B)]: the “Z repl 1” value is recorded as -0.336 and the “Z Repl 2” value is given as -0.332. Besides, the “av Z” value under setting [1] was -0.334. This molecule returned an av puncta under setting [2] of 15768.9. For the setting “raw puncta”, the “raw data 1” value came to 22314.5 and the “raw data 2” value amounted to 9223.26.
In the case of `O=C1c2c(O)cccc2C([C@@H]2O[C@H](CO)[C@@H](O)[C@H](O)[C@H]2O)c2cc(CO)cc(O)c21` (stereo partly drawn) [Aloin], the “Z repl 1” value was determined as 0.178 and the “Z Repl 2” value was determined as 0.236. Also, the “av Z” value under setting [4] worked out at 0.207. Under “average of raw data 1 and 2”, the av puncta came to 21886.9. Also, under “puncta”, the “raw data 1” value worked out at 28489.7 and the “raw data 2” value was 15284.2.
`O=c1cc(-c2ccc(O)c(-c3c(O)cc(O)c4c(=O)cc(-c5ccc(O)cc5)oc34)c2)oc2cc(O)cc(O)c12` [Amentoflavone]: the “Z repl 1” value is recorded as -0.87 and the “Z Repl 2” value was -0.309. For the same molecule, the “av Z” value under setting [1] is -0.589. In addition, the av puncta under setting [2] was 12689.4. Under “puncta”, the “raw data 1” value stood at 15910.5 and the “raw data 2” value is 9468.24.
For the molecule `CCCCCCCCCCCCCCCc1cccc(O)c1C(=O)O` [Anacardic Acid], the “AvZ (average z score of seeding, SDs from the mean level of seeding)” value was -0.119; the “Z repl 1” value turned out to be 0.086; the “Z Repl 2” value is -0.324. This molecule gave an av puncta (average of raw data 1 and 2) of 18346.5. For the same molecule, under “puncta”, the “raw data 1” value is 27383.8 and the “raw data 2” value turned out to be 9309.16.
Turning to `O=c1cc(-c2ccc(O)cc2)oc2cc(O[C@@H]3O[C@H](CO)[C@@H](O)[C@H](O)[C@H]3O)cc(O)c12` [Apigenin 7-glucoside], the “Z repl 1” value is listed as 0.518 and the “Z Repl 2” value is on record as -0.371. Also, the “av Z” value under setting [3] is reported as 0.074. The av puncta (average of raw data 1 and 2) was 20688.8. Besides, under “puncta”, the “raw data 1” value is listed as 32570.5 and the “raw data 2” value was 8807.12.
Consider `O=c1cc(-c2ccc(O)cc2)oc2cc(O[C@@H]3O[C@H](CO)[C@@H](O)[C@H](O)[C@H]3O[C@@H]3OC[C@](O)(CO)[C@H]3O)cc(O)c12` [Apiin], for which the “Z repl 1” value is given as 1.204 and the “Z Repl 2” value came out at 0.234. Under setting [4], the “av Z” value turned out to be 0.719. Where the note is “average of raw data 1 and 2”, the av puncta was 28032.2. Also, for the setting “puncta”, the “raw data 1” value worked out at 40800.8 and the “raw data 2” value is listed as 15263.6.
In the case of `COc1cc(C(C)=O)ccc1O` [Apocynin], the “AvZ (average z score of seeding, SDs from the mean level of seeding)” value is reported as -0.67; the “Z repl 1” value is reported as -1.155; the “Z Repl 2” value was -0.185. The same molecule returned an av puncta under setting [2] of 11639.1. Besides, for the setting “puncta”, the “raw data 1” value came out at 12482.9 and the “raw data 2” value worked out at 10795.4.
Regarding `OC[C@H]1O[C@@H](Oc2ccc(O)cc2)[C@H](O)[C@@H](O)[C@@H]1O` [Arbutin], the “Z repl 1” value is -0.665 and the “Z Repl 2” value was found to be 0.333. In addition, under setting [3], the “av Z” value was -0.166. In addition, under “average of raw data 1 and 2”, the av puncta is listed as 17341.3. Besides, for the setting “puncta”, the “raw data 1” value was 18360 and the “raw data 2” value was 16322.6.
On to `CC(=O)c1cc2c(CO)cc(O)cc2oc1=O` [Armillarisin A], for which the “Z repl 1” value is -0.702 and the “Z Repl 2” value was 0.126. Under setting [1], the “av Z” value is listed as -0.288. Besides, under setting [2], the av puncta was determined as 16013.9. For the same molecule, where the note is “raw puncta”, the “raw data 1” value amounted to 17917.5 and the “raw data 2” value turned out to be 14110.3.
`O=c1c(O[C@@H]2O[C@H](CO)[C@@H](O)[C@H](O)[C@H]2O)c(-c2ccc(O)cc2)oc2cc(O)cc(O)c12` [Astragalin]: the “Z repl 1” value is given as -0.525 and the “Z Repl 2” value was -0.638. For the same molecule, the “av Z” value under setting [1] was -0.581. This molecule had an av puncta under setting [2] of 12999. Besides, for the setting “puncta”, the “raw data 1” value is recorded as 20041.3 and the “raw data 2” value amounted to 5956.82.
As for `COC(=O)c1c(C)cc(OC(=O)c2c(C)cc(O)c(C=O)c2O)c(C)c1O` [Atranorin], the “Z repl 1” value is -0.357 and the “Z Repl 2” value was -0.801. Also, the “av Z” value under setting [1] is reported as -0.579. This molecule also had an av puncta under setting [2] of 13136.9. Further, under “puncta”, the “raw data 1” value is 22066.2 and the “raw data 2” value was determined as 4207.53.

Values taken from paper PMC11784839, “Monoaminergic neurotransmitters are bimodal effectors of tau aggregation” (Science Advances, 2025).
